Reference: patent publication US20110190348A1, “METHODS FOR TREATING CNS DISORDERS” (priority 2008, published 2011)

Experiments:
Male NMRI mice [1] = assay: Spontaneous locomotor activity; format: in vivo; details: doses of 5 and 10 mg/kg p.o.
Method: (§1) Male NMRI mice weighing 24-26 g were used. The animals were kept in polycarbonate cages in a thermostatically controlled room at 24+2° C. and at a relative humidity (RH) of 50±10%. The room was artificially illuminated from 6 am to 6 pm and the mice were given commercial pellet rat-mouse feed, autoclaved at 105° C. and sterile filtered tap water, ad libitum.
(§2) An aqueous solution of radiprodil, in the form of a complex with heptakis(2,6-di-O-methyl)-β-cyclodextrin(DIMEB), was administered orally at doses of 2.5, 5 and 10 mg/kg (calculated for non-complexed radiprodil). […]
Spontaneous locomotor activity was measured in a four-channel activity monitor manufactured by Farmakotechnika (Hungary). […] The photocell beam, when broken, signaled a count, which was then recorded by a computer.
Each group consisted of 10 animals. […] The horizontal and vertical movements were determined as the number of beam interruptions collected in 15 minute intervals throughout the 1 hour period.
In the spontaneous locomotor activity test, the mean (±s.e.m) value of one hour horizontal activity data (in counts) of each group was calculated.
The significance of the drug effect was determined by ANOVA followed by post-hoc Duncan-test. The percentage change in the horizontal activity, immobility or “FST-activity” variables were calculated for each dose according to the equation; […]

Male NMRI mice [2] = assay: Forced swimming test (FST); format: in vivo; details: doses of 5 and 10 mg/kg p.o., may be a false positive from nonspecific stimulatory effect
Method: The aim of this study was to evaluate the antidepressant activity of radiprodil. The forced swimming test is a behavioral assay that can be used to predict antidepressant efficacy of drugs in humans.
as §1, §2
The forced swimming test (FST) was measured in glass cylinders (height: […], diameter 14 cm) containing 12 cm of water, maintained at 23-25° C. […] The duration of immobility was recorded using a stopwatch. […]
In the forced swimming test, the mean±standard error on the mean (s.e.m) immobility time in seconds was measured. […] The mean (±s.e.m) “FST-activity” value was also calculated for each group and submitted to the same data analysis process as the immobility data.
The significance of the drug effect was determined by ANOVA followed by post-hoc Duncan-test. […]

## O=C(Nc1ccc2[nH]c(=O)oc2c1)C(=O)N1CCC(Cc2ccc(F)cc2)CC1 [radiprodil, 2-[4-(4-fluoro-benzyl)-piperidine-1-yl]-2-oxo-N-(2-oxo-2,3-dihydro-benzoxazol-6-yl)acetamide]
Male NMRI mice [1]
  effect on spontaneous motor activity (in words): stimulated the spontaneous motor activity
Male NMRI mice [2]
  effect in the forced swimming test (in words): significant effects
